Laboratory results from US10611778B2, “Fused bicyclic inhibitors of menin-MLL interaction” (Janssen Pharmaceutica NV, priority 2016, dated 2020).

Assays:
[1] = target: T1, Menin/MLL (menin, FITC-MBM1 peptide) (Homo sapiens, UniProt O00255, T541A); assay: Menin/MLL fluorescence polarization (FP) assay; type: binding; conditions: averaged values over all measurements; read-out: Menin FP assay (IC50)
T1 construct: 6xHis (C)
T1 sequence (O00255 with tags, fused parts or gaps T541A): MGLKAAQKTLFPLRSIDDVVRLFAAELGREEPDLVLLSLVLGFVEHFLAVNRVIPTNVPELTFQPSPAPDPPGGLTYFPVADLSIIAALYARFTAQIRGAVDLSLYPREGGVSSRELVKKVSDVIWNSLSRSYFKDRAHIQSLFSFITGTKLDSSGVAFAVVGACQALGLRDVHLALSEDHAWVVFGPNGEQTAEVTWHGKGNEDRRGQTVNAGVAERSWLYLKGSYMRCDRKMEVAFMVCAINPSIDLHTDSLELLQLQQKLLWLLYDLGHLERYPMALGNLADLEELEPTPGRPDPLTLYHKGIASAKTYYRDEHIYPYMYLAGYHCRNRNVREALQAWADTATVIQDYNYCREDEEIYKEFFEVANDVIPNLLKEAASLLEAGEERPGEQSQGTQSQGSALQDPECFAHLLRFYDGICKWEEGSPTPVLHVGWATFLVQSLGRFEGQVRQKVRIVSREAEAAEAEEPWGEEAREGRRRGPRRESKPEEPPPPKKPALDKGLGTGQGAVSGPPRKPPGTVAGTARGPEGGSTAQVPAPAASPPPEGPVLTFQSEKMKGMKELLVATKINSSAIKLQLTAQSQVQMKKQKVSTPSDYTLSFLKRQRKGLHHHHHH
Description: Pharmacological Part 1) Menin/MLL Fluorescence Polarization Assay
To a non-surface binding, black 384-well microtiter plate was added 50 nL 160× test compound in DMSO and 4 μL 2× menin in assay buffer (40 mM Tris-HCl, pH 7.5, 50 mM NaCl, 1 mM DTT and 0.001% Tween 20). After incubation of test compound and menin for 10 min at ambient temperature, 4 μL 2×FITC-MBM1 peptide (FITC-β-alanine-SARWRFPARPGT-NH2) in assay buffer was added, the microtiter plate centrifuged at 1000 rpm for 1 min and the assay mixtures incubated for 15 min at ambient temperature. The relative amount of menin: FITC-MBM1 complex present in an assay mixture is determined by measuring the fluorescence polarization (FP) of the FITC label with a BMG Pherastar plate reader (ex. 485 nm/em. 520 nm) at ambient temperature. The final concentrations of reagents in the binding assay are 100 nM menin, 5 nM FITC-MBM1 peptide and 0.625% DMSO in assay buffer. Dose-response titrations of test compounds are conducted using an 11 point, three-fold serial dilution scheme, starting at 31 μM.
Compound potencies were determined by first calculating % inhibition at each compound concentration according to equation 1: % inhibition=((HC−LC)−(FP^compound−LC))/(HC−LC))*100 (Eqn 1)
(§1) Where LC and HC are the FP values of the assay in the presence or absence of a saturating concentration of a compound that competes with FITC-MBM1 for binding to menin, and FP^compound is the measured FP value in the presence of the test compound. HC and LC FP values represent an average of at least 16 replicates per plate.
(§2) Where Bottom and Top are the lower and upper asymptotes of the dose-response curve, respectively, IC50 is the concentration of compound that yields 50% inhibition of signal and h is the Hill coefficient.

[2] = target: T2, Menin/MLL (terbium chelate-labeled menin, FITC-MBM1 peptide) (Homo sapiens, UniProt O00255, T541A); assay: Menin/MLL homogenous time-resolved fluorescence (HTRF) assay; type: binding; conditions: averaged values over all measurements; read-out: Menin HTRF assay (IC50)
T2 construct: Menin (a.a. 1-610-6×his tag) was labeled with terbium cryptate as follows
T2 sequence (O00255 with tags, fused parts or gaps T541A): T1 sequence (O00255 with tags, fused parts or gaps T541A)
Description: 3) Menin/MLL Homogenous Time-Resolved Fluorescence (HTRF) Assay
To an untreated, white 384-well microtiter plate was added 40 nL 200× test compound in DMSO and 4 μL 2× terbium chelate-labeled menin (vide infra for preparation) in assay buffer (40 mM Tris-HCl, pH 7.5, 50 mM NaCl, 1 mM DTT and 0.05% Pluronic F-127). After incubation of test compound and terbium chelate-labeled menin for 5 min at ambient temperature, 4 μL 2×FITC-MBM1 peptide (FITC-β-alanine-SARWRFPARPGT-NH2) in assay buffer was added, the microtiter plate centrifuged at 1000 rpm for 1 min and the assay mixtures incubated for 15 min at ambient temperature. The relative amount of menin⋅FITC-MBM1 complex present in an assay mixture is determined by measuring the homogenous time-resolved fluorescence (HTRF) of the terbium/FITC donor/acceptor fluorophore pair using a BMG Pherastar plate reader (ex. 337 nm/terbium em. 490 nm/FITC em. 520 nm) at ambient temperature. The degree of fluorescence resonance energy transfer (the HTRF value) is expressed as the ratio of the fluorescence emission intensities of the FITC and terbium fluorophores (F^em 520 nm/F^em 490 nm). The final concentrations of reagents in the binding assay are 100 pM terbium chelate-labeled menin, 75 nM FITC-MBM1 peptide and 0.5% DMSO in assay buffer. Dose-response titrations of test compounds are conducted using an 11 point, three-fold serial dilution scheme, starting at 31 μM.
Compound potencies were determined by first calculating % inhibition at each compound concentration according to equation 1: % inhibition=((HC−LC)−(HTRF^compound−LC))/(HC−LC))*100 (Eqn 1)
as §1, with “HTRF” for “FP”, “HTRF^compound” for “FP^compound”
as §2
Preparation of Terbium cryptate labeling of Menin: Menin (a.a. 1-610-6×his tag) was labeled with terbium cryptate as follows. 2 mg of Menin was buffer exchanged into 1× phosphate buffered saline. 16 uM Menin was incubated with 4-fold molar excess NHS-terbium cryptate (Cisbio Bioassays, Bedford, Mass.) for 2 hours at room temperature. The labeled protein was purified away from free label by running the reaction over a Superdex 200 Increase 10/300 GL column at 0.75 ml/min. Peak fractions were collected, aliquoted and frozen at −80° C.

MV-4-11 = assay: Proliferation assay (spheroid assay) MV-4-11; type: cell-based, human; conditions: Homo sapiens, MV4-11, MV-4-11; averaged values over all measurements; read-out: Spheroid assay MV-4-11 (IC50)
Description: (§3) The anti-proliferative effect of menin/MLL protein/protein interaction inhibitor test compounds was assessed in human leukemia cell lines. The cell lines MV-4-11 and MOLM14 harbor MLL translocations and express the MLL fusion proteins MLL-AF4 and MLL-AF9, respectively, as well as the wildtype protein from the second allele. […] K562 and KG1 were used as a control cell lines containing two MLL wildtype alleles in order to exclude compounds that display general cytotoxic effects.
(§4) MV-4-11 and MOLM14 were cultured in RPMI-1640 (Sigma Aldrich) supplemented with 10% fetal bovine serum (HyClone), 2 mM L-glutamine (Sigma Aldrich) and 50 μg/ml gentamycin (Gibco). K562 were propagated in RPMI-1640 (Sigma Aldrich) supplemented with 20% fetal bovine serum (HyClone), 2 mM L-glutamine (Sigma Aldrich) and 50 μg/ml gentamycin (Gibco). KG1 were cultured in Iscove's MDM (Gibco) supplemented with 20% fetal bovine serum (HyClone), 2 mM L-glutamine (Sigma Aldrich) and 50 μg/ml gentamycin (Gibco).
(§5) In order to assess the anti-proliferative effects, 1,500 MV-4-11, 300 MOLM14, 750 K562 or 1,300 KG1 cells were seeded in 200 μl media per well in 96-well round bottom, ultra-low attachment plates (Costar, catalogue number 7007). Cell seeding numbers were chosen based on growth curves to ensure linear growth throughout the experiment. Test compounds were added at different concentrations and the DMSO content was normalized to 0.3%. Cells were incubated for 8 d at 37° C. and 5% CO2. Spheroid like growth was monitored in real-time by live-cell imaging (IncuCyteZOOM, Essenbio, 4× objective) acquiring one image every four hours for 8 d. Confluence (%) as a measure of spheroid size was determined using an integrated analysis tool.
(§6) In order to determine the cumulative effect of the test compounds over time, the area under the curve (AUC) in a plot of confluence against time was calculated. Confluence at the beginning of the experiment (t=0) was used as baseline for the AUC calculation.
(§7) Absolute IC50 values were calculated according to the following procedure: % Control=(AUC sample/AUC control)*100
(§8) AUC control=mean AUC of control values (cells without compound/DMSO as vehicle control)
(§9) A non-linear curve fit was applied using the least squares (ordinary) fit method to the plot of % control versus compound concentration. Based on this, the absolute IC50 value (half maximal inhibitory concentration of the test compound causing an anti-proliferative effect of 50% relative to the vehicle control) was calculated.

MOLM14 = assay: Proliferation assay (spheroid assay) MOLM14; type: cell-based, human; conditions: Homo sapiens, MOLM-14, MOLM14; averaged values over all measurements; read-out: Spheroid assay MOLM14 (IC50)
Description: as §3, §4, §5, §6, §7, §8, §9

Row | SMILES | IC50 [1] [nM] | IC50 [2] [nM] | IC50 (MV-4-11) [nM] | IC50 (MOLM14) [µM]
1 | Cn1ccc(CN2CC[C@@H]3CN(c4ncnc5sc(CC(F)(F)F)cc45)CC[C@@H]32)n1 (single isomer, unassigned) [Compound 14] | 1120 | – | – | –
2 | O=S(=O)(c1ccccc1)N1CC[C@H]2CN(c3ncnc4sc(CC(F)(F)F)cc34)CC[C@H]21 (single isomer, unassigned) [Compound 17] | 1850 | – | – | –
3 | CC(C)CN1CC[C@@H]2CN(c3ncnc4sc(CC(F)(F)F)cc34)C[C@@H]21 (single isomer, unassigned) [Compound 28A] | 1170 | 1730 | – | –
4 | CC(C)CN1CC[C@H]2CN(c3ncnc4sc(CC(F)(F)F)cc34)C[C@H]21 (single isomer, unassigned) [Compound 28B] | 1380 | 2490 | – | –
5 | O=C(C1COC1)N1CCC(CN2CC[C@@H]3CN(c4ncnc5sc(CC(F)(F)F)cc45)C[C@@H]3C2)CC1 (single isomer, unassigned) [Compound 95] | – | 69 | 2100 | –
6 | COCCn1cc(CN2CC[C@@H]3CN(c4ncnc5sc(CC(F)(F)F)cc45)C[C@@H]3C2)cn1 (single isomer, unassigned) [Compound 97] | – | 150 | 2000 | –
7 | CCOc1ccc(CN2CC[C@@H]3CN(c4ncnc5sc(CC(F)(F)F)cc45)C[C@@H]3C2)cn1 (single isomer, unassigned) [Compound 103] | – | 106 | 1100 | –
8 | [CH3][Ge]([CH3])([CH3])[CH2]N1CCC2CN(c3ncnc4sc(CC(F)(F)F)cc34)CCC21 (stereo not drawn) [Compound 15] | 130 | 120 | – | –
9 | O=S(=O)(c1ccccc1)N1CC[C@@H]2CN(c3ncnc4sc(CC(F)(F)F)cc34)CC[C@@H]21 [Compound 16] | 1530 | – | – | –
10 | Cn1ccnc1CN1CCC2CN(c3ncnc4sc(CC(F)(F)F)cc34)CCC21 (stereo not drawn) [Compound 19] | 1770 | 4570 | – | –
11 | Cn1cc(CN2CCCC3C2CCN3c2ncnc3sc(CC(F)(F)F)cc23)cn1 (stereo not drawn) [Compound 21] | 1770 | 2120 | – | –
12 | FC(F)(F)Cc1cc2c(N3CCC4C(CCN4Cc4ncc[nH]4)C3)ncnc2s1 (stereo not drawn) [Compound 22] | 2410 | – | – | –

The remaining lines, values ahead:

Row | IC50 [1] [nM] | IC50 [2] [nM] | IC50 (MV-4-11) [nM] | IC50 (MOLM14) [µM] | SMILES
13 | – | 14 | 450 | – | O=C(C1CCCOC1)N1CCC(CN2CC[C@@H]3CN(c4ncnc5sc(CC(F)(F)F)cc45)C[C@@H]3C2)CC1 (single isomer, unassigned) [Compound 92]
14 | – | 20 | 580 | – | CC(C)(C)CC(=O)N1CCC(CN2CC[C@@H]3CN(c4ncnc5sc(CC(F)(F)F)cc45)C[C@@H]3C2)CC1 (single isomer, unassigned) [Compound 93]
15 | – | 18 | 430 | – | O=C(c1ccccc1)N1CCC(CN2CC[C@@H]3CN(c4ncnc5sc(CC(F)(F)F)cc45)C[C@@H]3C2)CC1 (single isomer, unassigned) [Compound 94]
16 | – | 45 | 1000 | – | O=C(c1cccnc1)N1CCC(CN2CC[C@@H]3CN(c4ncnc5sc(CC(F)(F)F)cc45)C[C@@H]3C2)CC1 (single isomer, unassigned) [Compound 96]
17 | – | 11 | 220 | – | Nc1ccc(CN2CC[C@@H]3CN(c4ncnc5sc(CC(F)(F)F)cc45)C[C@@H]3C2)cn1 (single isomer, unassigned) [Compound 105]
18 | – | 10 | 190 | – | CNc1ccc(CN2CC[C@@H]3CN(c4ncnc5sc(CC(F)(F)F)cc45)C[C@@H]3C2)cn1 (single isomer, unassigned) [Compound 106]
19 | – | 23 | 340 | – | CNc1cc(CN2CC[C@@H]3CN(c4ncnc5sc(CC(F)(F)F)cc45)C[C@@H]3C2)ccn1 (single isomer, unassigned) [Compound 107]
20 | – | 23 | 870 | – | O=C(c1ccncc1)N1CCC(CN2CC[C@@H]3CN(c4ncnc5sc(CC(F)(F)F)cc45)C[C@@H]3C2)CC1 (single isomer, unassigned) [Compound 108]
21 | – | 54 | 4700 | 5.6 | NCCn1cc(CN2CCC3CN(c4ncnc5sc(CC(F)(F)F)cc45)CCC32)cn1 (stereo not drawn) [Compound 26]
